Several values for one entry are separate records, joined by “and”; a condition that tells them apart may be missing. Equal values may be shown once.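 48-hour exposure; five concentrations; linearly interpolated endpoints. Here, GI50 denotes the concentration required for 50% inhibition of growth. At the TGI there is no net growth.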
Key:
Assay in all cases: NCI anticancer screen, dose series, 48 h
[1] = tested on: UACC-62 melanoma
[2] = tested on: RPMI-8226 leukemia
[3] = tested on: KM12 colon
[4] = tested on: NCI-H460 lung
[5] = tested on: SF-268 CNS
[6] = tested on: CCRF-CEM leukemia
[7] = tested on: RXF 393 renal
[8] = tested on: SK-MEL-2 melanoma
[9] = tested on: DU-145 prostate
[10] = tested on: HS 578T breast

| Compound | TGI [1] | TGI [2] | TGI [3] | TGI [4] | TGI [5] | TGI [6] | TGI [7] | TGI [8] | GI50 [1] [µM] | GI50 [3] [µM] | GI50 [4] [µM] | GI50 [5] [µM] | GI50 [6] [µM] | GI50 [7] [µM] | TGI [9] [µM] | TGI [10] [µM] | GI50 [8] [µM] | GI50 [2] [µM] | GI50 [9] [µM] | GI50 [10] [µM] |
| --- | --- | --- | --- | --- | --- | --- | --- | --- | --- | --- | --- | --- | --- | --- | --- | --- | --- | --- | --- | --- |
| C[C@@H]1CC(=O)C2CCCC1C2=O (stereo not given in full) | > 100 µM | > 100 µM | > 100 µM | > 100 µM | > 100 µM | > 100 µM | > 100 µM |  |  |  |  |  |  |  |  |  |  |  |  |  |
| COc1cc2c(cc1OC)C(CC(=O)NN=C(C)C)NCC2 (stereo not given) | > 100 µM | > 100 µM | > 100 µM | > 100 µM | > 100 µM | > 100 µM | > 100 µM | > 100 µM |  |  |  |  |  |  |  |  |  |  |  |  |
| CC(=O)[O-].CCN(CC)c1ccc(C=NCCN=Cc2ccc(N(CC)CC)cc2[O-])c([O-])c1.[Mn+3] | 57.5 µM |  | 33.7 µM | 43.5 µM | 52.7 µM | > 100 µM | 46.5 µM |  | 25.7 | 17.8 | 21.3 | 23.8 | 42 | 20.5 |  |  |  |  |  |  |
| CC(C)C(Nc1c2ccccc2nc2ccccc12)C(=O)O (stereo not given) | > 100 µM | > 100 µM | > 100 µM | > 100 µM | > 100 µM | > 100 µM | > 100 µM | > 100 µM |  |  |  |  |  |  |  |  |  |  |  |  |
| CCCN1CCC(=O)N(CCC(F)(F)C(F)(F)C(F)(F)C(F)(F)C(F)(F)C(F)(F)F)C1=S | > 100 µM |  | > 100 µM | > 100 µM | > 100 µM | > 100 µM | > 100 µM |  |  |  |  |  |  |  | > 100 | > 100 |  |  |  |  |
| Cc1cc(C(=O)Nc2ncc(Cc3cccc(C(F)(F)F)c3)s2)c2ccccc2n1 |  | > 100 µM | > 100 µM | > 100 µM | > 100 µM | > 100 µM |  | > 100 µM |  | 0.498 | 1.33 | 2.63 | 2.54 |  | > 100 | > 100 | 2.74 | 2.41 | 3.47 | 2.41 |
| O=C1OC(c2ccccc2)=N/C1=C\c1cccc2ccccc12 | > 100 µM | > 100 µM | > 100 µM | > 100 µM | > 100 µM | > 100 µM | > 100 µM | > 100 µM |  |  |  |  |  |  |  |  |  |  |  |  |
| N#CCN1C(=O)c2cccc3cc([N+](=O)[O-])cc(c23)C1=O | 60.5 µM | > 100 µM | > 100 µM | > 100 µM | > 100 µM | > 100 µM | > 100 µM | 22.2 µM |  |  |  |  |  |  |  |  |  |  |  |  |
| Clc1nc(Cl)c(Cl)c(-c2ccccc2)n1 |  | > 100 µM | 18 µM | > 100 µM | 61.6 µM |  | 26.6 µM | 51.7 µM |  |  |  |  |  |  |  | > 100 |  |  |  |  |
| CN1C(=O)c2cccc3cc([N+](=O)[O-])cc(c23)C1=O | > 10 µM | > 10 µM | > 10 µM |  | > 10 µM | > 10 µM |  |  |  |  |  |  |  |  | > 10 | > 10 |  |  |  |  |
| CC(C)(C)c1ccc2c(c1)S(=O)(=O)Nc1ccccc1NS(=O)(=O)c1cc(C(C)(C)C)ccc1OCCOCCOCCO2 | > 100 µM |  | > 100 µM | > 100 µM | > 100 µM | > 100 µM | > 100 µM | > 100 µM |  |  |  |  |  |  |  |  |  |  |  |  |
| CC1CC[C@]2(C(=O)O)CCC3(C)C(=CC(=O)C4[C@@]5(C)CCC(=O)C(C)(C)C5CC[C@]43C)[C@@H]2[C@H]1C (stereo not given in full) | 30.6 µM |  | 56.1 µM | > 100 µM | > 100 µM | 58.9 µM | 49.4 µM |  |  |  |  |  |  |  |  |  |  |  |  |  |
| Cc1cc(S(=O)(=O)Nc2nnc(-c3ccccc3)c(-c3ccccc3)n2)c(SCC(N)=O)cc1Cl | 56.2 µM | 86.6 µM | > 100 µM | > 100 µM | > 100 µM | 77.4 µM |  | 49.2 µM | 24.6 | 37 | 36.9 | 37.6 | 29.3 |  | > 100 | > 100 | 30.5 | 30.9 | 55.7 | 32.5 |
| COc1ccccc1CCc1cc(OC)c(OC)c(OC)c1 | > 100 µM | 68.8 µM | > 100 µM | > 100 µM | > 100 µM | > 100 µM | 57.7 µM |  |  |  |  |  |  |  |  |  |  |  |  |  |
| CCOc1ccccc1NC(=O)CC(C(=O)OC)C(=O)C(=O)OC (stereo not given) | > 100 µM | > 100 µM | > 100 µM | > 100 µM | > 100 µM | > 100 µM | > 100 µM | > 100 µM |  |  |  |  |  |  |  |  |  |  |  |  |
| O=C1C2C3C=C4c5ccccc5N(c5ccccc5)C4(C2C(=O)N1Cc1ccccc1)C1C(=O)N(Cc2ccccc2)C(=O)C31 (stereo not given) |  |  | > 100 µM | > 100 µM | > 100 µM | > 100 µM |  | > 100 µM |  |  |  |  |  |  |  |  |  |  |  |  |
| COC1(OC)C2(Cl)C(Cl)=C(Cl)C1(Cl)C1C=CC=CC12 (stereo not given) | > 100 µM | > 100 µM | > 100 µM | > 100 µM | > 100 µM |  | > 100 µM | 63 µM |  |  |  |  |  |  |  |  |  |  |  |  |
| COc1cccc2c1C(=O)c1c(O)c3c(c(O)c1C2=O)C[C@@](O)(C(C)=O)C[C@@H]3OC1OC(C)C(O)C(N)C1Br (stereo not given in full) | 0.892 µM and 0.424 µM | 0.702 µM and 0.263 µM | 0.426 µM and 0.453 µM | 0.115 µM and 0.118 µM | 3.63 µM and 1.21 µM | 0.07 µM and 0.108 µM | 0.661 µM and 0.864 µM | 0.715 µM and 0.704 µM | 0.0459 | 0.0797 |  | 0.0365 |  |  | 2.67 |  | 0.198 | 0.0124 |  |  |
| COc1ccc(C(=O)C(C(=O)CCC(=O)Nc2cccc(Cl)c2)c2ccc(OC)cc2)cc1 (stereo not given) | > 100 µM | > 100 µM | > 100 µM | > 100 µM | > 100 µM | > 100 µM |  | > 100 µM |  |  |  |  |  |  |  |  |  |  |  |  |
| CC1(C)C(=O)N(CCCCCCN2C(=O)C(C)(C)c3ccccc32)c2ccccc21 | 79.8 µM | 45.1 µM | > 100 µM | > 100 µM | > 100 µM | 47.5 µM |  | > 100 µM |  |  |  |  |  |  |  |  |  |  |  |  |
| O=C(N/N=C/c1ccc(Cl)cc1)c1ccc(C(F)(F)F)nc1Nc1cccc(C(F)(F)F)c1 | 6.15 µM |  | 8.4 µM | 6.6 µM | 8.29 µM | 3.62 µM |  | 7.91 µM | 2.39 | 2.31 | 1.66 | 1.14 | 0.344 |  | 10.8 | 10.2 | 2.58 | 1.53 | 2.33 | 2.98 |
| Cc1ccn2c(c1)nc1nc3ccccc3nc12 | > 100 µM | > 100 µM | > 100 µM | > 100 µM | > 100 µM | > 100 µM | > 100 µM | > 100 µM |  |  |  |  |  |  |  |  |  |  |  |  |

Source: PubChem BioAssay (NCI)
